Test results taken from US20250171457A1, “NITROGEN-CONTAINING HETEROCYCLIC COMPOUND HAVING NRF2 ACTIVATION EFFECT” (CHUGAI SEIYAKU KABUSHIKI KAISHA, priority 2022, published 2025).

What follows are molecules tested on Nrf2 transcriptional activity (pARE-Luc reporter) in HepG2 cells (assay: In vitro Nrf2 transcriptional activity measurement by ARE-dependent reporter assay in HepG2 cell). Conditions: Homo sapiens; HepG2 cells transfected with pARE-Luc, 4 hours at 37° C.; luciferase activity of Example 1-54 or Example 17-23 at 3.75 μM defined as 100%.
Assay type: cell-based, human
Procedure, shortened: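 HepG2 cells transfected with pGL4.37 (pARE-Luc), replated onto compound and incubated 4 h at 37° C; luciferase read by Bright-Glo luminescence. Response normalized to 100% set by a reference compound at 3.75 μM; EC50 from dose-response curve.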

Question: Which EC50 does the source give for `O=C(O)c1cc(F)c(-c2cccc3c2OCN(C(=O)c2c(Cl)cc(N4CCN(CC(F)F)CC4)cc2Cl)C3)cc1N1C2CCC1COC2` [Compound 8-2, 4-[3-[2,6-Dichloro-4-[4-(2,2-difluoroethyl)piperazin-1-yl]benzoyl]-2,4-dihydro-1,3-benzoxazin-8-yl]-5-fluoro-2-(3-oxa-8-azabicyclo[3.2.1]octan-8-yl)benzoic acid] here?
Answer: The EC50 was 4 nM.

Question: `COCCN1CCN(c2cc(Cl)c(C(=O)N3COc4c(cccc4-c4cc(N5C6CCC5COC6)c(C(=O)O)cc4F)C3)c(Cl)c2)CC1(C)C` [Compound 8-3, 4-[3-[2,6-Dichloro-4-[4-(2-methoxyethyl)-3,3-dimethylpiperazin-1-yl]benzoyl]-2,4-dihydro-1,3-benzoxazin-8-yl]-5-fluoro-2-(3-oxa-8-azabicyclo[3.2.1]octan-8-yl)benzoic acid] was tested. Which EC50 did it give?
Answer: Its EC50 is 2.6 nM.

Question: How did the EC50 turn out when `COCCN1[C@H](C)CN(c2cc(Cl)c(C(=O)N3COc4c(cccc4-c4cc(N5C6CCC5COC6)c(C(=O)O)cc4F)C3)c(Cl)c2)C[C@@H]1C` [Compound 8-4, 4-[3-[2,6-Dichloro-4-[meso-4-(2-methoxyethyl)-3,5-dimethylpiperazin-1-yl]benzoyl]-2,4-dihydro-1,3-benzoxazin-8-yl]-5-fluoro-2-(3-oxa-8-azabicyclo[3.2.1]octan-8-yl)benzoic acid] was run?
Answer: The EC50 was 3.6 nM.

Question: For `COCCN1CCN(c2cc(Cl)c(C(=O)N3COc4c(cccc4-c4cc(N5C6CCC5COC6)c(C(=O)O)cc4F)C3)c(Cl)c2)CC1C` [Compound 8-5, 4-[3-[2,6-Dichloro-4-[(3S)-4-(2-methoxyethyl)-3-methylpiperazan-1-yl]benzoyl]-2,4-dihydro-1,3-benzoxazin-8-yl]-5-fluoro-2-(3-oxa-8-azabicyclo[3.2.1]octan-8-yl)benzoic acid], which EC50 is on record?
Answer: The EC50 was 2.4 nM.

Question: `COCCN1CC[C@H](Oc2cc(Cl)c(C(=O)N3COc4c(cccc4-c4cc(N5CCOCC5)c(C(=O)O)cc4F)C3)c(Cl)c2)C1` [Compound 8-6, 4-[3-[2,6-Dichloro-4-[(3S)-1-(2-methoxyethyl)pyrrolidin-3-yl]oxybenzoyl]-2,4-dihydro-1,3-benzoxazin-8-yl]-5-fluoro-2-morpholin-4-ylbenzoic acid] was tested. Which EC50 did it give?
Answer: The EC50 was 2.7 nM.

Question: Which EC50 does the source give for `COCCN1CCC[C@@H](Oc2cc(Cl)c(C(=O)N3COc4c(cccc4-c4cc(N5CCOCC5)c(C(=O)O)cc4F)C3)c(Cl)c2)C1` [Compound 8-7, 4-[3-[2,6-Dichloro-4-[(3R)-1-(2-methoxyethyl)piperidin-3-yl]oxybenzoyl]-2,4-dihydro-1,3-benzoxazin-8-yl]-5-fluoro-2-morpholin-4-ylbenzoic acid] here?
Answer: The EC50 was 2.1 nM.

Question: Which EC50 does the source give for `O=C(O)c1cc(F)c(-c2cccc3c2OCN(C(=O)c2c(Cl)cc(OC4CN(CC(F)(F)F)C4)cc2Cl)C3)cc1N1C2CCC1COC2` [Compound 8-8, 4-[3-[2,6-Dichloro-4-[1-(2,2,2-trifluoroethyl)azetidin-3-yl]oxybenzoyl]-2,4-dihydro-1,3-benzoxazin-8-yl]-5-fluoro-2-(3-oxa-8-azabicyclo[3.2.1]octan-8-yl)benzoic acid] here?
Answer: Its EC50 is 4.8 nM.

Question: `COCCN1CC2(CCN(c3cc(Cl)c(C(=O)N4COc5c(cccc5-c5cc(N6C7CCC6COC7)c(C(=O)O)cc5F)C4)c(Cl)c3)C2)C1` [Compound 8-9, 4-[3-[2,6-Dichloro-4-[2-(2-methoxyethyl)-2,7-diazaspiro[3.4]octan-7-yl]benzoyl]-2,4-dihydro-1,3-benzoxazin-8-yl]-5-fluoro-2-(3-oxa-8-azabicyclo[3.2.1]octan-8-yl)benzoic acid] was tested. Which EC50 did it give?
Answer: Its EC50 is 9.5 nM.

Question: `CN1CCOC2(C1)CN(c1cc(Cl)c(C(=O)N3COc4c(cccc4-c4cc(N5C6CCC5COC6)c(C(=O)O)cc4F)C3)c(Cl)c1)C2` [Compound 9-1, 4-[3-[2,6-Dichloro-4-(8-methyl-5-oxa-2,8-diazaspiro[3.5]nonan-2-yl)benzoyl]-2,4-dihydro-1,3-benzoxazin-8-yl]-5-fluoro-2-(3-oxa-8-azabicyclo[3.2.1]octan-8-yl)benzoic acid] was tested. Which EC50 did it give?
Answer: Its EC50 is 3.5 nM.

Question: With `O=C(O)c1cc(F)c(-c2cccc3c2OCN(C(=O)c2c(Cl)cc(N4CC5(C4)CN(C4CC(F)(F)C4)C5)cc2Cl)C3)cc1N1C2CCC1COC2` [Compound 9-2, 4-[3-[2,6-Dichloro-4-[2-(3,3-difluorocyclobutyl)-2,6-diazaspiro[3.3]heptan-6-yl]benzoyl]-2,4-dihydro-1,3-benzoxazin-8-yl]-5-fluoro-2-(3-oxa-8-azabicyclo[3.2.1]octan-8-yl)benzoic acid] as the molecule, how does the EC50 read?
Answer: The EC50 was 7.4 nM.

Question: For `O=C(O)c1cc(F)c(-c2cccc3c2OCN(C(=O)c2c(Cl)cc(N4CC5(C4)CN(C4COC4)C5)cc2Cl)C3)cc1N1C2CCC1COC2` [Compound 9-3, 4-[3-[2,6-Dichloro-4-[2-(oxetan-3-yl)-2,6-diazaspiro[3.3]heptan-6-yl]benzoyl]-2,4-dihydro-1,3-benzoxazin-8-yl]-5-fluoro-2-(3-oxa-8-azabicyclo[3.2.1]octan-8-yl)benzoic acid], which EC50 is on record?
Answer: Its EC50 is 19 nM.

Question: For `O=C(O)c1cc(F)c(-c2cccc3c2OCN(C(=O)c2c(Cl)cc(N4CC5(C4)CN(C4CC4)C5)cc2Cl)C3)cc1N1C2CCC1COC2` [Compound 9-4, 4-[3-[2,6-Dichloro-4-(2-cyclopropyl-2,6-diazaspiro[3.3]heptan-6-yl)benzoyl]-2,4-dihydro-1,3-benzoxazin-8-yl]-5-fluoro-2-(3-oxa-8-azabicyclo[3.2.1]octan-8-yl)benzoic acid], which EC50 is on record?
Answer: The EC50 was 7.5 nM.

Question: For `CN1CCN(c2cc(Cl)c(C(=O)N3COc4c(cccc4-c4cc(N5C6CCC5COC6)c(C(=O)O)cc4F)C3)c(Cl)c2)C2CC21` (centres unmarked) [Compound 9-5, 4-[3-[2,6-Dichloro-4-(5-methyl-2,5-diazabicyclo[4.1.0]heptan-2-yl)benzoyl]-2,4-dihydro-1,3-benzoxazin-8-yl]-5-fluoro-2-(3-oxa-8-azabicyclo[3.2.1]octan-8-yl)benzoic acid], which EC50 is on record?
Answer: The EC50 was 4.6 nM.

Question: Which EC50 does the source give for `C[C@@H]1CN(c2cc(Cl)c(C(=O)N3COc4c(cccc4-c4cc(N5C6CCC5COC6)c(C(=O)O)cc4F)C3)c(Cl)c2)[C@@H](C)CN1C` [Compound 9-6, 4-[3-[2,6-Dichloro-4-[(2S,5R)-2,4,5-trimethylpiperazin-1-yl]benzoyl]-2,4-dihydro-1,3-benzoxazin-8-yl]-5-fluoro-2-(3-oxa-8-azabicyclo[3.2.1]octan-8-yl)benzoic acid] here?
Answer: Its EC50 is 5.7 nM.

Question: How did the EC50 turn out when `CN1C2CCC1CN(c1cc(Cl)c(C(=O)N3COc4c(cccc4-c4cc(N5C6CCC5COC6)c(C(=O)O)cc4F)C3)c(Cl)c1)C2` [Compound 9-7, 4-[3-[2,6-Dichloro-4-(8-methyl-3,8-diazabicyclo[3.2.1]octan-3-yl)benzoyl]-2,4-dihydro-1,3-benzoxazin-8-yl]-5-fluoro-2-(3-oxa-8-azabicyclo[3.2.1]octan-8-yl)benzoic acid] was run?
Answer: Its EC50 is 14 nM.

Question: For `CN1CC2CCC(C1)N2c1cc(Cl)c(C(=O)N2COc3c(cccc3-c3cc(N4C5CCC4COC5)c(C(=O)O)cc3F)C2)c(Cl)c1` [Compound 9-8, 4-[3-[2,6-Dichloro-4-(3-methyl-3,8-diazabicyclo[3.2.1]octan-8-yl)benzoyl]-2,4-dihydro-1,3-benzoxazin-8-yl]-5-fluoro-2-(3-oxa-8-azabicyclo[3.2.1]octan-8-yl)benzoic acid], which EC50 is on record?
Answer: Its EC50 is 3.5 nM.

Question: For `C[C@@H]1CN(c2cc(Cl)c(C(=O)N3COc4c(cccc4-c4cc(N5C6CCC5COC6)c(C(=O)O)cc4F)C3)c(Cl)c2)[C@H](C)CN1C` [Compound 9-9, 4-[3-[2,6-Dichloro-4-[(2R,5R)-2,4,5-trimethylpiperazin-1-yl]benzoyl]-2,4-dihydro-1,3-benzoxazin-8-yl]-5-fluoro-2-(3-oxa-8-azabicyclo[3.2.1]octan-8-yl)benzoic acid], which EC50 is on record?
Answer: Its EC50 is 1.5 nM.

Question: For `CN1CC2CC(C1)N2c1cc(Cl)c(C(=O)N2COc3c(cccc3-c3cc(N4C5CCC4COC5)c(C(=O)O)cc3F)C2)c(Cl)c1` [Compound 9-10, 4-[3-[2,6-Dichloro-4-(3-methyl-3,6-diazabicyclo[3.1.1]heptan-6-yl)benzoyl]-2,4-dihydro-1,3-benzoxazin-8-yl]-5-fluoro-2-(3-oxa-8-azabicyclo[3.2.1]octan-8-yl)benzoic acid], which EC50 is on record?
Answer: Its EC50 is 8.8 nM.

Question: For `C[C@@H]1CN(C)[C@@H](C)CN1c1cc(Cl)c(C(=O)N2COc3c(cccc3-c3cc(N4C5CCC4COC5)c(C(=O)O)cc3F)C2)c(Cl)c1` [Compound 9-11, 4-[3-[2,6-Dichloro-4-[(2R,5S)-2,4,5-trimethylpiperazin-1-yl]benzoyl]-2,4-dihydro-1,3-benzoxazin-8-yl]-5-fluoro-2-(3-oxa-8-azabicyclo[3.2.1]octan-8-yl)benzoic acid], which EC50 is on record?
Answer: The EC50 was 19 nM.

Question: How did the EC50 turn out when `C[C@H]1CN(C)CCN1c1cc(Cl)c(C(=O)N2COc3c(cccc3-c3cc(N4C5CCC4COC5)c(C(=O)O)cc3F)C2)c(Cl)c1` [Compound 9-12, 4-[3-[2,6-Dichloro-4-[(2S)-2,4-dimethylpiperazin-1-yl]benzoyl]-2,4-dihydro-1,3-benzoxazin-8-yl]-5-fluoro-2-(3-oxa-8-azabicyclo[3.2.1]octan-8-yl)benzoic acid] was run?
Answer: The EC50 was 3.1 nM.

Question: With `C[C@H]1CN(c2cc(Cl)c(C(=O)N3COc4c(cccc4-c4cc(N5C6CCC5COC6)c(C(=O)O)cc4F)C3)c(Cl)c2)[C@@H](C)CN1C` [Compound 9-13, 4-[3-[2,6-Dichloro-4-[(2S,5S)-2,4,5-trimethylpiperazin-1-yl]benzoyl]-2,4-dihydro-1,3-benzoxazin-8-yl]-5-fluoro-2-(3-oxa-8-azabicyclo[3.2.1]octan-8-yl)benzoic acid] as the molecule, how does the EC50 read?
Answer: The EC50 was 6.7 nM.

Question: `CN1CCN(c2cc(Cl)c(C(=O)N3COc4c(cccc4-c4cc(N5C6CCC5COC6)c(C(=O)O)cc4F)C3)c(Cl)c2)C(C)(C)C1` [Compound 9-14, 4-[3-[2,6-Dichloro-4-(2,2,4-trimethylpiperazin-1-yl)benzoyl]-2,4-dihydro-1,3-benzoxazin-8-yl]-5-fluoro-2-(3-oxa-8-azabicyclo[3.2.1]octan-8-yl)benzoic acid] was tested. Which EC50 did it give?
Answer: The EC50 was 11 nM.

Question: With `O=C(O)c1cc(F)c(-c2cccc3c2OCN(C(=O)c2c(Cl)cc(N4CCN(C5COC5)C5CC54)cc2Cl)C3)cc1N1C2CCC1COC2` (centres unmarked) [Compound 9-15, 4-[3-[2,6-Dichloro-4-[5-(oxetan-3-yl)-2,5-diazabicyclo[4.1.0]heptan-2-yl]benzoyl]-2,4-dihydro-1,3-benzoxazin-8-yl]-5-fluoro-2-(3-oxa-8-azabicyclo[3.2.1]octan-8-yl)benzoic acid] as the molecule, how does the EC50 read?
Answer: Its EC50 is 14 nM.
